Assay results taken from patent US8841233B2, “Herbicidal compositions comprising 4-amino-3-chloro-5-fluoro-6-(4-chloro-2-fluoro-3-methoxyphenyl) pyridine-2-carboxylic acid or a derivative thereof and 4-hydroxyphenyl-pyruvate dioxygenase (HPPD) inhibitors” (Dow Agrosciences LLC, priority 2012, dated 2014).

Legend:
[1] = system: ECHCO; assay: In-water applied weed control, transplanted paddy rice, greenhouse (Example II); type: in vivo, Echinochloa colona (L.) Link
Protocol: (§1) Evaluation of in-Water Applied Herbicidal Mixtures for Weed Control in Transplanted Paddy Rice
(§2) Weed seeds or nutlets of the desired test plant species were planted in puddled soil (mud) prepared by mixing a shredded, non-sterilized mineral soil (50.5 percent silt, 25.5 percent clay, and 24 percent sand, with a pH of about 7.6 and an organic matter content of about 2.9 percent) and water at a 1:1 volumetric ratio. The prepared mud was dispensed in 365 mL aliquots into 16-ounce (oz.) non-perforated plastic pots with a surface area of 86.59 square centimeters (cm^2) leaving a headspace of 3 centimeters (cm) in each pot. Mud was allowed to dry overnight prior to planting or transplanting. Rice seeds were planted in Sun Gro MetroMix® 306 planting mixture, which typically has a pH of 6.0 to 6.8 and an organic matter content of about 30 percent, in plastic plug trays. Seedlings at the second or third leaf stage of growth were transplanted into 840 mL of mud contained in 32-oz. non-perforated plastic pots with a surface area of 86.59 cm^2 4 days prior to herbicide application. The paddy was created by filling the headspace of the pots with 2.5 to 3 cm of water. When required to ensure good germination and healthy plants, a fungicide treatment and/or other chemical or physical treatment was applied. The plants were grown for 4-22 days in a greenhouse with an approximate 14 h photoperiod which was maintained at about 29′C during the day and 26° C. during the night. Nutrients were added as Osmocote® (19:6:12, N:P:K+ minor nutrients) at 2 g per 16-oz. pot and 4 g per 32-oz. pot. Water was added on a regular basis to maintain the paddy flood, and supplemental lighting was provided with overhead metal halide 1000-Watt lamps as necessary. The plants were employed for testing when they reached the first through fourth true leaf stage.
Treatments consisted of the acid or esters of 4-amino-3-chloro-5-fluoro-6-(4-chloro-2-fluoro-3-methoxy-phenyl)pyridine-2-carboxylic acid (compound A) each formulated as an SC (suspension concentrate) and various herbicidal components alone and in combination. Forms of compound A were applied on an acid equivalent basis. […]
(§3) Treatment requirements for each compound or herbicidal component were calculated based upon the rates being tested, the concentration of active ingredient or acid equivalent in the formulation, an application volume of 2 mL per component per pot, and an application area of 86.59 cm^2 per pot.
(§4) For formulated compounds, a measured amount was placed in an individual 100 or 200 mL glass vial and was dissolved in a volume of 1.25% (v/v) Agri-Dex® crop oil concentrate to obtain application solutions. […]

[2] = system: SCPJU; assay: as above; type: in vivo, Schoenoplectus juncoides (Roxb.) Palla; conditions: 4.38 gae/ha
Protocol: as §1
as §2, with “Water was added on a regular basis to maintain the paddy flood, and supplemental lighting was provided with overhead metal halide 1000-Watt lamps as necessary. The plants were employed for testing when they reached the first through fourth true leaf stage.” left out
as §3, §4

[3] = system: IPOHE; assay: Pre-emergence soil-applied weed control, greenhouse (Example III); type: in vivo, Ipomoea hederacea (L.) Jacq.
Text: Evaluation of Pre-emergence Soil-Applied Herbicidal Mixtures for Weed Control
Seeds or nutlets of the desired test plant species were planted in a soil matrix prepared by mixing a loam soil (32 percent silt, 23 percent clay, and 45 percent sand, with a pH of about 6.5 and an organic matter content of about 1.9 percent) and calcareous grit in an 80 to 20 ratio. The soil matrix was contained in plastic pots with a volume of 1 quart and a surface area of 83.6 square centimeters (cm^2).
Treatments consisted of the benzyl ester of 4-amino-3-chloro-5-fluoro-6-(4-chloro-2-fluoro-3-methoxy-phenyl)pyridine-2-carboxylic acid (compound A) formulated as an SC (suspension concentrate) and various herbicidal components alone and in combination. Forms of compound A were applied on an acid equivalent basis.
Other herbicidal components were applied on an acid equivalent or active ingredient basis and included the 4-hydroxyphenyl pyruvate dioxygenase (HPPD)-inhibiting herbicide, isoxaflutole, formulated as Balance Pro®.
Treatment requirements were calculated based upon the rates being tested, the concentration of active ingredient or acid equivalent in the formulation, and a 12 mL application volume at a rate of 187 L/ha.
For treatments comprised of formulated compounds, measured amounts of compounds were placed individually in 25 mL glass vials and diluted in a volume of 1.25% (v/v) Agri-Dex® crop oil concentrate (COC) to obtain 12× stock solutions. […] Application solutions were prepared by adding an appropriate amount of each stock solution (e.g., 1 mL) and diluted to the appropriate final concentrations with the addition of 10 mL of an aqueous mixture of 1.25% (v/v) COC so that the final spray solutions contained 1.25% (v/v) COC.
All stock solutions and applications solutions were visually inspected for compound compatibility prior to application. Spray solutions were applied to the soil with an overhead Mandel track sprayer equipped with a 8002E nozzles calibrated to deliver 187 L/ha over an application area of 0.503 m^2 at a spray height of 18 inches (46 cm) above average pot height. Control pots were sprayed in the same manner with the solvent blank.
The treated and control pots were placed in a greenhouse and top watered as needed. When required to ensure good germination and healthy plants, a fungicide treatment and/or other chemical or physical treatment was applied. […] After approximately 4 weeks, the condition of the test plants as compared with that of the untreated plants was determined visually and scored on a scale of 0 to 100 percent where 0 corresponds to no injury or growth inhibition and 100 corresponds to complete kill. […]

COc1c(Cl)ccc(-c2nc(C(=O)O)c(Cl)c(N)c2F)c1F [Compound A Acid, 4-amino-3-chloro-6-(4-chloro-2-fluoro-3-methoxyphenyl)-5-fluoropyridine-2-carboxylic acid]
Visual Weed Control (%) - 21 DAA ECHCO Obs ([1]; 8.75 gae/ha): 0% | Visual Weed Control (%) - 21 DAA ECHCO Obs ([1]; 17.5 gae/ha): 20%

COc1c(Cl)ccc(-c2nc(C(=O)OCc3ccccc3)c(Cl)c(N)c2F)c1F [Compound A Benzyl Ester, benzyl ester of 4-amino-3-chloro-5-fluoro-6-(4-chloro-2-fluoro-3-methoxy-phenyl)pyridine-2-carboxylic acid]
Visual Weed Control (%) - 21 DAA SCPJU Obs [2]: 70% | Visual Weed Control (%) - 32 DAA IPOHE Obs ([3]; 8 gae/ha): 5% | Visual Weed Control (%) - 32 DAA IPOHE Obs ([3]; 16 gae/ha): 10% | Visual Weed Control (%) - 32 DAA IPOHE Obs ([3]; 32 gae/ha): 10%
